In one data set the target is T1, human TRPV1 receptors (Homo sapiens, UniProt Q8NER1).
T1 construct: expressed in transfected cells; host or cells: CHO-K1
The data set can be described thus: Inhibition of capsaicin-stimulated Ca2+ influx (Fluo-3, FDSS-3000) in CHO-K1 cells stably expressing human TRPV1 receptors. In kind it is cell-based. The following applies: CHO-K1 cells transfected with human TRPV1; capsaicin stimulation; Fluo-3 fluorescence. The method, then:
CHO-K1 cells were transfected with human TRPV1 receptors and a cell culture stably expressing the receptor was seeded on a medium of alpha-MEM containing FBS(10%), HEPES (20 mM), geneticin (1 mg/mL) and antibiotic-antimycotic mixed solution(1%) in 96-well plates, and incubated at 37° C. and 5% CO2 for 2-3 days.
The medium was then substituted with Lording Buffer (20 mM HEPES, 115 mM NaCl, 5.4 mM KCl 0.8 mM MgCl2, 1.8 mM CaCl2, 13.8 mM D-glucose, 2.5 mM probenecid, pH 7.4) containing Fluo-3 AM (5 μM) and incubated at 37° C. and 5% CO2 for 1 hour. The test compounds were diluted to different concentrations and added to the plates after the incubated culture was washed with Wash Buffer (20 mM HEPES, 115 mM NaCl, 5.4 mM KCl 0.8 mM MgCl2, 5.0 mM CaCl2, 13.8 mM D-glucose, 2.5 mM probenecid, 0.1% BSA, pH 7.4) and placed at room temperature for 15 minutes.
The plate was set up in Functional Drug Screening System(FDSS)-3000(Hamamatsu Photonics K.K.) and amounts of Ca^2+ influx before and after capsaicin-stimulation were measured through changes in the fluorescence intensity of Fluo-3.
An inhibitory activity was evaluated by measuring fluorescence intensity in the presence of various concentrations of the test compounds and calculating their % inhibition on the basis that the maximum fluorescence intensity is 100% inhibition when stimulated by Wash Buffer, and 0% inhibition when stimulated by capsaicin
Data analysis and calculation of IC50 values were performed with Excel(Microsoft Corporation) and XLfit(idbs).

T1 sequence (Q8NER1 whole entry): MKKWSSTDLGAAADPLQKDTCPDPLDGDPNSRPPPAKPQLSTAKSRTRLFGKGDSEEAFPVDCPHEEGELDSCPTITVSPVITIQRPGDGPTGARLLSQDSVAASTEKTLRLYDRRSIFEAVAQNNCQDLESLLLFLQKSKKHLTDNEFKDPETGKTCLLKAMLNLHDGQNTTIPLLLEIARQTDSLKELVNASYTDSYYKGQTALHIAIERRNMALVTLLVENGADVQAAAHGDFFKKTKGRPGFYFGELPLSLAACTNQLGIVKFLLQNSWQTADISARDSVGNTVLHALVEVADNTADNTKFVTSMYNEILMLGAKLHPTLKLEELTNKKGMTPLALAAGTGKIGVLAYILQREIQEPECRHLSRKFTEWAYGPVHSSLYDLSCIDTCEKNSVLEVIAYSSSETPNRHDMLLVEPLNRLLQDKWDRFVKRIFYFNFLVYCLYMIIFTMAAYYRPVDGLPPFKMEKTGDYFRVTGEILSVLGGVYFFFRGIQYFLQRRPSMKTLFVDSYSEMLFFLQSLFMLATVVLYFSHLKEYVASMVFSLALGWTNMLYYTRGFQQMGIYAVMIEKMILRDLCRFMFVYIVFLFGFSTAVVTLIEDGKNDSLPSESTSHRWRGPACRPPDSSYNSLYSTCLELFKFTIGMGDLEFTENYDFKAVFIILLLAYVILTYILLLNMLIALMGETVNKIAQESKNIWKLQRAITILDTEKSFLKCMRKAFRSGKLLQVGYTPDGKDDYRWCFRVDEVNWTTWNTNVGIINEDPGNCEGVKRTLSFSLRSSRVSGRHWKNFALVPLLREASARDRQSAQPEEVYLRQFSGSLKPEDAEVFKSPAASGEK

`CC(C)(C)c1ccc(NC(=O)c2ccc(C3OCCCO3)cc2)cc1` [Ia-1]: the melting point was 165 to 166 °C. On human TRPV1 receptors, this compound came in with an IC50 of 0.176 µM.

Consider `CC(C)(C)c1ccc(NC(=O)c2ccc(C3(C)OCCCO3)cc2)cc1` [Ia-2, N-(4-tert-butylphenyl)-4-(2-methyl-1,3-dioxane-2-yl)benzamide], for which the melting point was 148 to 149 °C. Besides, the half-maximal inhibitory concentration (IC50) on human TRPV1 receptors turned out to be 0.297 µM.

Compound `CC(C)(C)c1ccc(NC(=O)c2ccc(C3NCCS3)cc2)cc1` (centres unmarked) [Ib-1] returned a melting point of 119 to 120 °C. The compound also gave a half-inhibitory concentration (IC50) on human TRPV1 receptors of 0.21 µM.

`CC(C)(C)c1ccc(NC(=O)c2ccc(C3(C)NCCS3)cc2)cc1` (centres unmarked) [Ib-2] displayed a melting point of 152 to 153 °C. At human TRPV1 receptors, the midpoint of inhibition, the IC50, lay at 0.19 µM.

Compound `CC(C)(C)c1ccc(NC(=O)c2ccc(C3(C)NCCO3)cc2)cc1` (centres unmarked) [Ic-1] yielded a melting point of 138 to 139 °C. At human TRPV1 receptors, this compound displayed an IC50 of 0.25 µM.

For the compound `CC(C)(C)c1ccc(NC(=O)c2ccc(C3(C)OCCO3)cc2)cc1` [Ie-2], the melting point lay in the range of 180 to 189 °C. On human TRPV1 receptors, this compound showed an IC50 of 0.23 µM.

`CC(C)(C)c1ccc(NC(=O)c2ccc(C3=NCCS3)cc2)cc1` [If-1, N-(4-tert-butylphenyl)-4-(2-thiazolinyl)benzamide] came in with a melting point of 176 to 177 °C. Also, the IC50 on human TRPV1 receptors is 0.006 µM.

The compound `CC(C)(C)c1ccc(NC(=O)c2ccc(C3NOC(=O)N3)cc2)cc1` (centres unmarked) [Ih-1, N-(4-tert-butylphenyl)-4-(5-oxo-1,2,4-oxadiazolidine-3-yl)benzamide] returned a melting point greater than 300 °C.

For the compound `CON=C(C)c1ccc(C(=O)Nc2ccc(C(C)(C)C)cc2)cc1` [Ij-4, N-(4-tert-butylphenyl)-4-(1-methoxyiminoethyl)benzamide], the melting point lay in the range of 154 to 155 °C. The IC50 at human TRPV1 receptors is 0.163 µM.

The IC50 is the concentration that gives 50% inhibition. The term melting point denotes the temperature of the solid-liquid transition.

Values taken from patent US20090163549A1, “Pharmaceutical Composition Comprising an Amide Derivative” (priority 2005, published 2009).
